Values quoted from earlier work as cited in PMC2857392 (Biochemistry, 2010).

What was measured:
Stx1 B-subunit (Stx1B) = conditions: read-out: dissociation constant (Kd) for B-subunit monomer

Row | Compound | Kd (Stx1 B-subunit (Stx1B)) [µM] | Kd (Stx1B) [µM]
1 | OC[C@H]1O[C@H](O[C@@H]2[C@H](O)[C@@H](O)[C@H](O[C@H]3[C@H](O)[C@@H](O)C(O)O[C@@H]3CO)O[C@@H]2CO)[C@H](O)[C@@H](O)[C@H]1O (stereo partly drawn) [Pk trisaccharide, Galα1-4Galβ1-4Glc] | 500 to 1000 | 4800
2 | globotriaosylceramide [Gb3] |  | 0.003
